# Earlier results as cited in US20110223244A1, “ALCOHOL RESISTANT ENTERIC PHARMACEUTICAL COMPOSITIONS” (priority 2010, published 2011).
# Where a name gives a salt, the structure may show the parent alone.
# Settings: yields 1-(2-thienyl)carbinol, naphthol and substituted naphthols
smiles,measurement,value
CNCC[C@H](Oc1cccc2ccccc12)c1cccs1 [duloxetine HCl],stability in aqueous HCl,rapidly undergoes solvolysis and rearrangement
